Assay results taken from the supplement of paper PMC11061612.

Legend:
Assay in all cases: combination Emax (second highest fraction inhibited in the dose matrix, 72 h); higher = more inhibition; extreme values may be limits of the assay
[1] = system: BFTC-905 (Bladder Carcinoma)
Outline: (§1)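 After 24 hours at 37°C and 5% CO2 in 1536-well plates, cells in DMEM/F12 or RPMI plus 10% FBS received two-drug dose matrices for 72 hours. Viability came from CellTiter-Glo 2.0 luminescence and was scaled as inhibition, anchored at 0 by vehicle wells and at 1 by blank wells. Combination Emax is taken as the second-highest inhibition in the matrix, and Bliss excess as the observed combination effect less EA + EB − EA·EB, with EA and EB the single-agent effects.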

[2] = system: BL-41 (Burkitt's Lymphoma)
Outline: as §1

[3] = system: CAMA-1 (Breast Carcinoma)
Outline: as §1

[4] = system: COLO-678 (Colorectal Carcinoma)
Outline: as §1

[5] = system: DND-41 (T-Lymphoblastic Leukemia)
Outline: as §1

[6] = system: EVSA-T (Breast Carcinoma)
Outline: as §1

[7] = system: KCL-22 (Chronic Myelogenous Leukemia)
Outline: as §1

[8] = system: KYSE-180 (Esophageal Squamous Cell Carcinoma)
Outline: as §1

LN-18 (Glioblastoma) = system: LN-18 (Glioblastoma)
Outline: as §1

MEL-JUSO (Melanoma) = system: MEL-JUSO (Melanoma)
Outline: as §1

[9] = system: MKN28 (Gastric Carcinoma)
Outline: as §1

[10] = system: MS751 (Cervical Carcinoma)
Outline: as §1

[11] = system: NCI-H1792 (Lung Adenocarcinoma)
Outline: as §1

NCI-H2818 (Mesothelioma) = system: NCI-H2818 (Mesothelioma)
Outline: as §1

[12] = system: NCI-H847 (Small Cell Lung Carcinoma)
Outline: as §1

[13] = system: PANC-08-13 (Pancreatic Carcinoma)
Outline: as §1

[14] = system: SW837 (Colorectal Carcinoma)
Outline: as §1

TC-71 (Ewing's Sarcoma) = system: TC-71 (Ewing's Sarcoma)
Outline: as §1

U251 (Low Grade Glioma) = system: U251 (Low Grade Glioma)
Outline: as §1

WM-115 (Melanoma) = system: WM-115 (Melanoma)
Outline: as §1

Compound	combination Emax [1]	combination Emax [2]	combination Emax [3]	combination Emax [4]	combination Emax [5]	combination Emax [6]	combination Emax [7]	combination Emax [8]	combination Emax (LN-18 (Glioblastoma))	combination Emax (MEL-JUSO (Melanoma))	combination Emax [9]	combination Emax [10]	combination Emax [11]	combination Emax (NCI-H2818 (Mesothelioma))	combination Emax [12]	combination Emax [13]	combination Emax [14]	combination Emax (TC-71 (Ewing's Sarcoma))	combination Emax (U251 (Low Grade Glioma))	combination Emax (WM-115 (Melanoma))
COc1cc2c(cc1OCCCCCOc1cc3c(cc1OC)C(=O)N1C=C(C)C[C@H]1C=N3)N=C[C@@H]1CC(C)=CN1C2=O [SG3199] + O=C(c1cc(Cc2n[nH]c(=O)c3ccccc23)ccc1F)N1CCN(C(=O)C2CC2)CC1 [Olaparib] (first compound max 0.001 µM, 7x7, partner max 10 µM)	0.152	0.107	0.109	0.13	0.216	0.276	0.176	0.0586	0.132	0.0923	0.0709	0.176	0.144	0.161	0.509	0.101	0.0782	0.518	0.183	0.206
Cc1cc2ncnn2cc1Nc1ncc2c(n1)n(C1CCOCC1)c(=O)n2C [AZD7648] + C[C@@H]1COCCN1C2=NC(=NC(=C2)C3(CC3)[S@](=N)(=O)C)C4=C5C=CNC5=NC=C4 [AZD6738] (first compound max 10 µM, 7x7, partner max 10 µM)	0.804	1	0.393	0.175	0.894	0.323	0.983	0.867	0.272	0.419	0.514	0.296	0.696	0.43	1	0.325	0.39	0.835	0.353	0.571
COc1cccc(OCCCN)c1-c1cc(Nc2cnc(C#N)cn2)n[nH]1 [Prexasertib] + C=CCn1c(=O)c2cnc(Nc3ccc(N4CCN(C)CC4)cc3)nc2n1-c1cccc(C(C)(C)O)n1 [AZD1775] (first compound max 1 µM, partner max 1 µM)	0.96	1	0.545	0.307	0.88	0.532	0.997	0.983	0.807	0.747	0.725	0.701	0.915	0.359	1	0.544	0.79	1	0.783	0.614
CN(CCO)CC[C@H](CSc1ccccc1)Nc1ccc(S(=O)(=O)NC(=O)c2ccc(N3CCC([C@@H](O)c4ccccc4-c4ccc(Cl)cc4)CC3)cc2)cc1S(=O)(=O)C(F)(F)F [AZD4320] + C=CCn1c(=O)c2cnc(Nc3ccc(N4CCN(C)CC4)cc3)nc2n1-c1cccc(C(C)(C)O)n1 [AZD1775] (first compound max 1 µM, partner max 1 µM)	0.759	1	0.182	0.367	1	0.191	0.937	0.783	0.537	0.73	0.536	0.262	0.696	0.371	1	0.492	0.461	0.926	0.289	0.507
Cc1cc2ncnn2cc1Nc1ncc2c(n1)n(C1CCOCC1)c(=O)n2C [AZD7648] + O=C(c1cc(Cc2n[nH]c(=O)c3ccccc23)ccc1F)N1CCN(C(=O)C2CC2)CC1 [Olaparib] (first compound max 10 µM, 7x7, partner max 10 µM)	0.178	0.14	0.109	0.132	0.26	0.253	0.25	0.0923	0.132	0.104	0.103	0.197	0.322	0.328	0.853	0.102	0.0487	0.6	0.185	0.229
COc1cccc(OCCCN)c1-c1cc(Nc2cnc(C#N)cn2)n[nH]1 [Prexasertib] + C[C@@H]1COCCN1C2=NC(=NC(=C2)C3(CC3)[S@](=N)(=O)C)C4=C5C=CNC5=NC=C4 [AZD6738] (first compound max 1 µM, 7x7, partner max 10 µM)	0.917	1	0.417	0.136	0.891	0.343	0.999	0.989	0.797	0.695	0.597	0.383	0.832	0.387	1	0.49	0.752	0.962	0.652	0.59
COc1cccc(OCCCN)c1-c1cc(Nc2cnc(C#N)cn2)n[nH]1 [Prexasertib] + CN(C)CCCOc1ccc(-c2ccc3ncc4c(c3c2)n(C2CCOCC2)c(=O)n4C)cn1 [AZD0156] (first compound max 1 µM, 7x7, partner max 1 µM)	0.888	1	0.327	0.0457	0.811	0.252	1	0.983	0.752	0.751	0.597	0.378	0.825	0.282	1	0.467	0.803	0.977	0.613	0.566
CCN(CCO)CCCOc1ccc2c(Nc3cc(CC(=O)Nc4cccc(F)c4)[nH]n3)ncnc2c1 [AZD2811] + C=CCn1c(=O)c2cnc(Nc3ccc(N4CCN(C)CC4)cc3)nc2n1-c1cccc(C(C)(C)O)n1 [AZD1775] (first compound max 1 µM, partner max 1 µM)	0.531	1	0.171	0.278	0.902	0.257	0.932	0.726	0.458	0.333	0.5	0.599	0.608	0.276	1	0.268	0.15	0.857	0.266	0.193
Cc1cc2ncnn2cc1Nc1ncc2c(n1)n(C1CCOCC1)c(=O)n2C [AZD7648] + CN(C)CCCOc1ccc(-c2ccc3ncc4c(c3c2)n(C2CCOCC2)c(=O)n4C)cn1 [AZD0156] (first compound max 10 µM, 7x7, partner max 1 µM)	0.221	0.269	0.261	0.0911	0.242	0.28	0.332	0.168	0.17	0.169	0.287	0.275	0.469	0.368	0.663	0.223	0.154	0.246	0.196	0.328
CC1(C)CCC(CN2CCN(c3ccc(C(=O)NS(=O)(=O)c4ccc(NCC5CCOCC5)c([N+](=O)[O-])c4)c(Oc4cnc5[nH]ccc5c4)c3)CC2)=C(c2ccc(Cl)cc2)C1 [Venetoclax] + C1CN(CCC1(C(=O)N[C@@H](CCO)C2=CC=C(C=C2)Cl)N)C3=NC=NC4=C3C=CN4 [Capivasertib] (first compound max 1 µM, 7x7, partner max 3 µM)	0.193	0.252	0.63	0.0815	0.921	0.855	0.183	0.312	0.365	0.204	0.255	0.138	0.223	0.175	0.829	0.189	0.127	0.257	0.303	0.397
C[C@@H]1COCCN1c1cc(C2([S@](C)(=N)=O)CC2)nc(-c2ccnc3[nH]ccc23)n1 [AZD6738] + O=C(c1cc(Cc2n[nH]c(=O)c3ccccc23)ccc1F)N1CCN(C(=O)C2CC2)CC1 [Olaparib] (first compound max 10 µM, 7x7, partner max 10 µM)	0.873	1	0.322	0.159	0.947	0.346	0.909	0.76	0.877	0.418	0.484	0.395	0.707	0.45	0.978	0.313	0.343	0.887	0.661	0.518
Cc1cc2ncnn2cc1Nc1ncc2c(n1)n(C1CCOCC1)c(=O)n2C [AZD7648] + C=CCn1c(=O)c2cnc(Nc3ccc(N4CCN(C)CC4)cc3)nc2n1-c1cccc(C(C)(C)O)n1 [AZD1775] (first compound max 10 µM, partner max 1 µM)	0.56	1	0.303	0.27	0.813	0.291	0.937	0.778	0.366	0.494	0.668	0.387	0.715	0.462	1	0.312	0.292	0.496	0.319	0.469
CN(CCO)CC[C@H](CSc1ccccc1)Nc1ccc(S(=O)(=O)NC(=O)c2ccc(N3CCC([C@@H](O)c4ccccc4-c4ccc(Cl)cc4)CC3)cc2)cc1S(=O)(=O)C(F)(F)F [AZD4320] + C[C@@H](Nc1cc(F)cc(F)c1)c1cc(C(=O)N(C)C)cc2c(=O)cc(N3CCOCC3)oc12 [AZD8186] (first compound max 1 µM, 7x7, partner max 3 µM)	0.851	0.745	0.84	0.344	1	0.885	0.33	0.177	0.555	0.428	0.263	0.3	0.323	0.365	1	0.481	0.395	1	0.635	0.914
